Reference: US6492414B1, “Methods and compositions for the treatment and prevention of lung disease” (Allergan, Inc., priority 1999, dated 2002)
Blank lines part the entries; values can stand above or below the compound they belong to.

Legend:
[1] = molecular target: T1, RARγ (Homo sapiens, UniProt P13631); experiment: RAR isotype activity stated for the retinoid ligand (RARγ)
T1 sequence (P13631 1-454): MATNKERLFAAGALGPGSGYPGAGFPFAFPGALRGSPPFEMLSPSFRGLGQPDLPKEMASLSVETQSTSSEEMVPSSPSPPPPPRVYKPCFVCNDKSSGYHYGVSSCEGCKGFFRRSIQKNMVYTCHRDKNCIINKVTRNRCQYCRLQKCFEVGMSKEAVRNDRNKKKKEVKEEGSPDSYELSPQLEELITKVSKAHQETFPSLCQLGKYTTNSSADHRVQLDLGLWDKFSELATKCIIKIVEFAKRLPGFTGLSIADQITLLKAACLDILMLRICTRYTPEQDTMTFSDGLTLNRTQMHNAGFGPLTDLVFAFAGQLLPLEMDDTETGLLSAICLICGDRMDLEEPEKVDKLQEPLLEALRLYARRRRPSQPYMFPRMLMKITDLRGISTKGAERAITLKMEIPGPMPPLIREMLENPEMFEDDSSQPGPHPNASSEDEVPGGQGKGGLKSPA

[2] = tested on: RAR receptors; experiment: Receptor class specificity, RAR versus RXR
[3] = tested on: Sprague-Dawley rat pups; experiment: Alveolus formation (septation) in newborn rat pups, daily intraperitoneal injection, lung histology and morphometry; format: in vivo
Excerpt: This retinoid, termed AGN 193174, has a structure defined by the formula [drawing 1]
Following sacrifice, rat lungs were fixed and histological sections prepared essentially as described in Massaro et al., Am. J. Physiol. 270: L305 (1996), incorporated by reference herein. The histological sections were viewed and photographs taken under light microscopy.
The differences in alveolar dimensions between =treated and untreated rat pups were so pronounced, they were quantitated by measuring the distance between alveolar walls (Lm) and the surface-to-volume ratio (S/V) of the gas-exchange structures (septa). The Lm in cottonseed oil-treated rats was 80 μm±2.8 μm (N=4) compared to 110 μm±7.3 μm (N=3) in RARβ agonist-treated rats (N=3; P=0.03 by Mann Whitney nonparametric analysis). The S/V was 504 μm^−1±18 μm^−1(N=4) in cottonseed oil-treated rats compared to 365 μm^−1±23 μm^−1(N=3) in RARβ agonist-treated rats (P=0.03).

[4] = tested on: RARβ; experiment: RAR isotype activity stated for the retinoid ligand (RARβ)
[5] = tested on: all RAR isotypes; conditions: cited from earlier work
[6] = tested on: newborn rats; conditions: cited from earlier work
[7] = tested on: rats treated with elastase; conditions: cited from earlier work

activity at RARγ [1]: antagonist activity
SMILES: CC1(C)CC=C(c2cccs2)c2cc(C#Cc3ccc(C(=O)O)cc3)ccc21 [AGN 193174]
specificity RAR versus RXR receptors [2]: specific to RAR receptors and not to RXR receptors
alveolar size and degree of septation in histological sections versus cottonseed oil alone ([3]; age 14 days, treated daily from age 3 through 13 days, FIGS. 1A and 1B): alveoli were larger, and the degree of sepatation less
Lung volume versus cottonseed oil-treated rats ([3]; rat pups, 500 micrograms per kg i.p. daily from age 3 to 13 days): the same in both rat groups
activity at RARβ (agonist) [4]: RARβ agonist activity
activity at RARβ (antagonist (so in the source)) [4]: antagonist activity

SMILES: CC1=C(/C=C/C(C)=C/C=C/C(C)=C/C(=O)O)C(C)(C)CCC1 [ATRA, all-trans-retinoic acid]
agonist activity at RAR isotypes [5]: an agonist of all RAR isotypes
effect on number of alveoli [6]: induced the formation of an increased number of alveoli in rats without enlarging the lung
effect on elastase-induced destruction of alveolar walls [7]: appeared to reverse this destruction
